Reference: patent publication US9617256B2 (priority 2007, dated 2017)
In brackets after ≈: the same amount, converted by molar mass. Where two headings read alike, the source gives them in different places.

Key:
AECO001 (ATCC25922) = assay: MIC broth microdilution, AECO001; format: cell-based, E. coli; settings: for MIC: Escherichia coli; for Ratio of MICs on AECO001 [Cpd (A = —CHCH3NH2)/Cpd (A = —C(CH3)2NH2)]: MIC of paired compound with A = —CHCH3NH2 divided by MIC of compound with A = —C(CH3)2NH2, n=2 data, pairs identical except for the A moiety
How it was run: (§1)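 MICs come from broth microdilution in cation-adjusted Mueller-Hinton broth, final inoculum 3×10^5–7×10^5 CFU/mL, 18-24 hours at 35° C. Levofloxacin and QC strains served as assay controls.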

[1] = test system: AECO063 (ATCC25922 bearing an acrAB mutation); assay: microbe, parasite or virus in culture; format: cell-based, E. coli; settings: for MIC: Escherichia coli, ATCC25922, read-out: MIC AECO063
How it was run: as §1

APAE001 (ATCC27853) = assay: MIC broth microdilution, APAE001; format: cell-based, P. aeruginosa; settings: for MIC: Pseudomonas aeruginosa
How it was run: as §1

[2] = test system: APAE006 (strain of P. aeruginosa in which all efflux pumps are inactivated); assay: microbe, parasite or virus in culture; format: cell-based; settings: for MIC: Pseudomonas aeruginosa
How it was run: (§2)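 (ambient air) in cation-adjusted MHB; inoculum from 0.5 McFarland suspensions, final 3×10^5–7×10^5 CFU/mL; 2-fold serial drug dilutions per CLSI. APAE006: P. aeruginosa with all efflux pumps inactivated.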

[3] = test system: APAE006 in the presence of 8 micrograms per milliliter of polymyxin B nonapeptide; format: cell-based, P. aeruginosa
How it was run: as §2

[4] = test system: AABA1060 (clinical isolate of Acinetobacter baumannii); assay: MIC broth microdilution, AABA1060; format: cell-based; settings: for MIC: Acinetobacter baumannii, read-out: MIC AABA1060
How it was run: as §1

[5] = test system: ASAU001 (laboratory strain of S. aureus, ATCC29213); assay: MIC broth microdilution, ASAU001; format: cell-based; settings: for MIC: Staphylococcus aureus, ATCC29213, read-out: MIC ASAU001
How it was run: as §1

ATCC43816 [6] = assay: MIC broth microdilution, infecting strain ATCC43816; format: cell-based; settings: ratio >1 means the —C(CH3)2NH2 compound had a lower MIC than the paired —C(CH3)2OH compound
Experimental: Minimum Inhibitory Concentrations (MICs) were determined by the broth microdilution method in accordance with the Clinical and Laboratory Standards Institute (CLSI) guidelines. In brief, organism suspensions were adjusted to a 0.5 McFarland standard to yield a final inoculum between 3×10^5 and 7×10^5 colony-forming units (CFU)/mL. Drug dilutions and inocula were made in sterile, cation adjusted Mueller-Hinton Broth (Beckton Dickinson). An inoculum volume of 100 μL was added to wells containing 100 μL of broth with 2-fold serial dilutions of drug. All inoculated microdilution trays were incubated in ambient air at 35° C. for 18-24 hours. Following incubation, the lowest concentration of the drug that prevented visible growth (OD600 nm<0.05) was recorded as the MIC. Performance of the assay was monitored by the use of laboratory quality-control strains and levofloxacin, a compound with a defined MIC spectrum, in accordance with CLSI guidelines. Typically, compounds of the present invention have MIC values of […].
(§3) As shown in the following Table 3, three pairs of compounds were tested in the neutropenic thigh efficacy model. For each pair of compounds, the compounds were identical in structure except for the A moiety. More specifically, A is —C(CH3)2NH2 in one compound and A is —C(CH3)2OH in the other compound. […] In addition, the ratios of the MICs of each pair of compounds on the infecting strain (ATCC43816) was calculated.

ATCC43816 [7] = assay: Neutropenic thigh efficacy model; format: in vivo, mice; settings: for Ratio of thigh static doses: neutropenic thigh model, compound with A = —C(CH3)2NH2 versus paired compound with A = —C(CH3)2OH, ratio >1 means the —C(CH3)2NH2 compound had a lower static dose; for Ratio of thigh static dose normalized to MICs: ratio of neutropenic thigh static doses normalized to the MIC ratio on ATCC43816, —C(CH3)2NH2 compound versus paired —C(CH3)2OH compound
Experimental: Mice were rendered neutropenic prior to infection with 2 doses of cyclophosphamide, and then infected intramuscularly in the thigh with 10^5-10^6 CFU of bacteria. See Gudmundsson S., Erlensdottir H., “Murine Thigh Infection Model” Handbook of Animal Models of Infection, M. A. Sande and O. Zak, Eds.; London: Academic Press, 1999, pp 137-144. Antibiotics or vehicle alone as a negative control were administered twice at 2 hrs and 14 hrs post-infection. At 24 hrs post-infection, thighs were harvested, homogenized, and plated to measure the number of CFUs surviving per thigh. Thighs from a subset of animals were also harvested 2 hrs post-infection to record the CFUs present just prior to the first antibiotic treatment (pre-treatment). The static dose, defined as the dose required to result in a CFU load at 24 hours that is identical to that measured at 0 hours post infection, was calculated by standard methods in Prizm from a dose response curve.
as §3

AECO001 HSA AGP = assay: MIC broth microdilution, AECO001 HSA AGP; format: cell-based, E. coli
How it was run: as §1

[8] = ATCC25922, read-out: MIC AECO001
[9] = ATCC25922, read-out: MIC AECO001 HSA AGP
[10] = ATCC27853, read-out: MIC APAE001, APAE001 (ATCC27853)
[11] = read-out: MIC APAE006, APAE006, all efflux pumps inactivated
[12] = APAE006 with 8 micrograms per milliliter polymyxin B nonapeptide
[13] = in the presence of 8 micrograms per milliliter of polymyxin B nonapeptide

Compound	MIC (AECO001 (ATCC25922); [8])	MIC (AECO001 (ATCC25922); [9])	Ratio of MICs on AECO001 [Cpd (A = —CHCH3NH2)/Cpd (A = —C(CH3)2NH2)] (AECO001 (ATCC25922))	MIC [1]	MIC (APAE001 (ATCC27853); [10])	MIC [2, 11]	MIC APAE006 + PMBN [3, 12]	MIC [4]	MIC [5]	Ratio of MICs on ATCC43816 [Cpd (A = —CH(CH3)2OH/Cpd (A = —C(CH3)2NH2)]) (ATCC43816 [6])	Ratio of thigh static doses (ATCC43816 [7])	Ratio of thigh static dose normalized to MICs (ATCC43816 [7])	also measured
C[C@@H](O)[C@H](NC(=O)c1ccc(F)c(Br)c1)C(=O)NO	–	–	–	–	–	–	–	–	–	–	–	–	melting point: 152 to 153 °C
O=C(NO)[C@H]1[C@H](O)CCN1C(=O)c1ccc(OC(F)(F)F)cc1	–	–	–	–	–	–	–	–	–	–	–	–	melting point: 64 to 65 °C
CC(C)(N)[C@H](NC(=O)c1ccc(C#CC#Cc2cccs2)cc1)C(=O)NO [Example 88-13]	< 2 µg/mL	< 2 µg/mL	4.1	< 2 µg/mL	< 2 µg/mL	< 2 µg/mL	A (MIC's of 2.0 μg/mL or less = A)	< 2 µg/mL	2 to 16 µg/mL (≈ 5.24 to 41.9 µM)	1.6	>7x	>4.4x	–
CC(C)(N)[C@H](NC(=O)c1ccc(C#CC#CC2CC2)cc1)C(=O)NO [Example 91-12]	< 2 µg/mL	< 2 µg/mL	5.6	< 2 µg/mL	< 2 µg/mL	< 2 µg/mL	A (MIC's of 2.0 μg/mL or less = A)	< 2 µg/mL	2 to 16 µg/mL (≈ 5.89 to 47.1 µM)	1.0	>3x	>3x	–
CC(C)(N)[C@H](NC(=O)c1ccc(C#Cc2ccc(CN3CCCOCC3)cc2)cc1)C(=O)NO [Example 122-5]	< 2 µg/mL	< 2 µg/mL	2.4	< 2 µg/mL	< 2 µg/mL	< 2 µg/mL	A (MIC's of 2.0 μg/mL or less = A)	< 2 µg/mL	16 to 64 µg/mL (≈ 34.4 to 138 µM)	0.5	>2x	>4x	–
C[C@@H](O)[C@H](NC(=O)c1ccc(CCc2ccc(CN3CCOCC3)cc2)cc1)C(=O)NO [Example 137-8]	2 to 16 µg/mL (≈ 4.53 to 36.2 µM)	–	–	< 2 µg/mL	–	–	–	16 to 64 µg/mL (≈ 36.2 to 145 µM)	16 to 64 µg/mL (≈ 36.2 to 145 µM)	–	–	–	MIC (APAE001 (ATCC27853); ATCC27853, read-out: MIC APAE001, APAE001 is ATCC27853): 2 to 16 µg/mL (≈ 4.53 to 36.2 µM); MIC ([2]; read-out: MIC APAE006, P. aeruginosa, all efflux pumps inactivated): < 2 µg/mL; MIC APAE006 + PMBN [3, 13]: A (MIC's of 2.0 μg/mL or less = A); MIC (AECO001 HSA AGP; Escherichia coli): 16 to 64 µg/mL (≈ 36.2 to 145 µM)
N-[1-((S)-Hydroxycarbamoyl)-2-methylamino-ethyl]-4-[(E)-4-(4-morpholin-4-ylmethyl-phenyl)-but-1-en-3-ynyl]-benzamide [Example 111-4]	–	–	–	–	–	–	–	–	–	–	–	–	MIC AECO001 (AECO001 (ATCC25922); AECO001 is ATCC25922): A (MIC's of 2.0 μg/mL or less = A); MIC AECO063 ([1]; ATCC25922 bearing an acrAB mutation): A (MIC's of 2.0 μg/mL or less = A); MIC APAE001 (APAE001 (ATCC27853); APAE001 is ATCC27853): B (MIC's of greater than 2.0 μg/mL to 16.0 μg/mL = B); MIC APAE006 ([2]; P. aeruginosa, all efflux pumps inactivated): A (MIC's of 2.0 μg/mL or less = A); MIC APAE006 + PMBN [3, 13]: A (MIC's of 2.0 μg/mL or less = A); MIC AABA1060 ([4]; clinical isolate of Acinetobacter baumannii): C (MIC's of greater than 16.0 μg/mL to 64.0 μg/mL = C); MIC ASAU001 ([5]; S. aureus ATCC29213): D (MIC's of greater than 64.0 μg/mL = D); MIC AECO001 HSA AGP (AECO001 HSA AGP): C (MIC's of greater than 16.0 μg/mL to 64.0 μg/mL = C)
